Earlier results as cited in publication PMC9851200, “Multiparameter phenotypic screening for endogenous TFEB and TFE3 translocation identifies novel chemical series modulating lysosome function” (Autophagy, 2022).

Legend:
Design in all cases: method as in original PKIS2 published data
[1] = target: kinases (KINOMEscan panel) (Homo sapiens, UniProt O75460); conditions: Published KINOMEscan; ref original PKIS2 published data; cited from earlier work
[2] = target: kinases (KINOMEscan panel) (Homo sapiens, UniProt P49760); conditions: kinase CLK2; Published KINOMEscan; ref original PKIS2 published data; cited from earlier work
[3] = target: T1, kinases (KINOMEscan panel) (Homo sapiens, UniProt P54760); conditions: EPHB4; Published KINOMEscan; ref original PKIS2 published data; cited from earlier work
T1 sequence (P54760 16-987): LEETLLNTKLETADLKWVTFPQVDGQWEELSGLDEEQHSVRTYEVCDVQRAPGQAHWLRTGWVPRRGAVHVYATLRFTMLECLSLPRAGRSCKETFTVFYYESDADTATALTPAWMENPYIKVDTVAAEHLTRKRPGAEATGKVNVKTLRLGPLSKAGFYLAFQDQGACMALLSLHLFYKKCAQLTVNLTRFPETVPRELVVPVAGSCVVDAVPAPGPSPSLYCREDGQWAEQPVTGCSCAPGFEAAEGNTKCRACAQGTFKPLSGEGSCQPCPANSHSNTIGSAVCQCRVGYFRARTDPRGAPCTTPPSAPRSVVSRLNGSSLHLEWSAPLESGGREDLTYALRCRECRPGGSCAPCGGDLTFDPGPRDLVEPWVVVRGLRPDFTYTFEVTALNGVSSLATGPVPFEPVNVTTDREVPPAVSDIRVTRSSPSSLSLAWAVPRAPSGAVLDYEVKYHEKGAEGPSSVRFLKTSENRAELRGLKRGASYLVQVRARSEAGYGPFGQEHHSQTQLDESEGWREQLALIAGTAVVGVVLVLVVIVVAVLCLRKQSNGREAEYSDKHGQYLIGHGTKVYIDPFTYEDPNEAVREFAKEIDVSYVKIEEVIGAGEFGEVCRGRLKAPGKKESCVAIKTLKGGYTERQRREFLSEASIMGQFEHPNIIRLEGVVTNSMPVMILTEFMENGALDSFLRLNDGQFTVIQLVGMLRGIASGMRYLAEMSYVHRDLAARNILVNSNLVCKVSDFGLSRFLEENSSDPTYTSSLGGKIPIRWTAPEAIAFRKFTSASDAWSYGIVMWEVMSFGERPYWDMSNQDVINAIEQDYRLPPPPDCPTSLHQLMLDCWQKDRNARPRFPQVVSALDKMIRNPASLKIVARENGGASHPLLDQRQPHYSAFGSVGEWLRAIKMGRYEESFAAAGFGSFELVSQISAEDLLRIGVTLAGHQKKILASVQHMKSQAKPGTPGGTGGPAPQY

[4] = target: T2, kinases (KINOMEscan panel) (Homo sapiens, UniProt P57058); conditions: kinase HUNK; Published KINOMEscan; ref original PKIS2 published data; cited from earlier work
T2 sequence (P57058 1-714): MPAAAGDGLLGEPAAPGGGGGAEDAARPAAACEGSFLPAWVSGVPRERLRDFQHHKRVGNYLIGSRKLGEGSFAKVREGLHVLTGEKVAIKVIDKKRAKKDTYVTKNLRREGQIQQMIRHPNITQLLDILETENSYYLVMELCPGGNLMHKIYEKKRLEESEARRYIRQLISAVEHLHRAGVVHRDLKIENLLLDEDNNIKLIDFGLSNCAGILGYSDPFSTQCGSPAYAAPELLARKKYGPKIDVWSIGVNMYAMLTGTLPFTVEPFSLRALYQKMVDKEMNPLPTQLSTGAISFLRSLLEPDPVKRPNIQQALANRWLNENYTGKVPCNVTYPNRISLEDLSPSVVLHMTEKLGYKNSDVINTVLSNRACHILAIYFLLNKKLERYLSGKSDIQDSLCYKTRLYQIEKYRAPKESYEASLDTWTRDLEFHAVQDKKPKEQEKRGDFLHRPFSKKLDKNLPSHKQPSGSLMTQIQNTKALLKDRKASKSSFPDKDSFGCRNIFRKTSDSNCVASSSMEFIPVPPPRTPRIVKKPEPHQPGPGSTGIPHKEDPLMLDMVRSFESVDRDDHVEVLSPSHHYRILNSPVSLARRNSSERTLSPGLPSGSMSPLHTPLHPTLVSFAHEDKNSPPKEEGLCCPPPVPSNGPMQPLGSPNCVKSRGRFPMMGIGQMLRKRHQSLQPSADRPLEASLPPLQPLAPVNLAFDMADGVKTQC

[5] = target: kinases (KINOMEscan panel) (Homo sapiens, UniProt Q16512); conditions: Published KINOMEscan; ref original PKIS2 published data; cited from earlier work
[6] = target: T3, kinases (KINOMEscan panel) (Homo sapiens, UniProt Q8NG66); conditions: Published KINOMEscan; ref original PKIS2 published data; cited from earlier work
T3 sequence (Q8NG66 1-645): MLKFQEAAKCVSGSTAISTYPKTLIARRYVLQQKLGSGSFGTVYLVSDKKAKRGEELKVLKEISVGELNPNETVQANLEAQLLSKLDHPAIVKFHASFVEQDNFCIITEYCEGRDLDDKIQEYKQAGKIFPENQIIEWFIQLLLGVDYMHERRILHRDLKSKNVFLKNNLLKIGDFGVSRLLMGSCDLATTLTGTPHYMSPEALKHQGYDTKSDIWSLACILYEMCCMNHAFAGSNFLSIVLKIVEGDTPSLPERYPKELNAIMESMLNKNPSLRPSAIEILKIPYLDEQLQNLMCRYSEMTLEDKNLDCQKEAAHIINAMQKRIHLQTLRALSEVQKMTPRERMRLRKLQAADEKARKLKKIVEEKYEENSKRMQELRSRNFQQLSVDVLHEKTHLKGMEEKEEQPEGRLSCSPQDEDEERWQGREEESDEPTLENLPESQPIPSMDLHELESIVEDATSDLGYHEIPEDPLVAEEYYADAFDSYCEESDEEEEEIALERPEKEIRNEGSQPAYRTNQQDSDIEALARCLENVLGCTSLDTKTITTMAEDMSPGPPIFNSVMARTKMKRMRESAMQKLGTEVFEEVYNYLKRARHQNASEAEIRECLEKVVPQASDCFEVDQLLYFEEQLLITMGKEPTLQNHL

Chain of kinases (KINOMEscan panel) (Homo sapiens, UniProt O75460) (O75460 19-977): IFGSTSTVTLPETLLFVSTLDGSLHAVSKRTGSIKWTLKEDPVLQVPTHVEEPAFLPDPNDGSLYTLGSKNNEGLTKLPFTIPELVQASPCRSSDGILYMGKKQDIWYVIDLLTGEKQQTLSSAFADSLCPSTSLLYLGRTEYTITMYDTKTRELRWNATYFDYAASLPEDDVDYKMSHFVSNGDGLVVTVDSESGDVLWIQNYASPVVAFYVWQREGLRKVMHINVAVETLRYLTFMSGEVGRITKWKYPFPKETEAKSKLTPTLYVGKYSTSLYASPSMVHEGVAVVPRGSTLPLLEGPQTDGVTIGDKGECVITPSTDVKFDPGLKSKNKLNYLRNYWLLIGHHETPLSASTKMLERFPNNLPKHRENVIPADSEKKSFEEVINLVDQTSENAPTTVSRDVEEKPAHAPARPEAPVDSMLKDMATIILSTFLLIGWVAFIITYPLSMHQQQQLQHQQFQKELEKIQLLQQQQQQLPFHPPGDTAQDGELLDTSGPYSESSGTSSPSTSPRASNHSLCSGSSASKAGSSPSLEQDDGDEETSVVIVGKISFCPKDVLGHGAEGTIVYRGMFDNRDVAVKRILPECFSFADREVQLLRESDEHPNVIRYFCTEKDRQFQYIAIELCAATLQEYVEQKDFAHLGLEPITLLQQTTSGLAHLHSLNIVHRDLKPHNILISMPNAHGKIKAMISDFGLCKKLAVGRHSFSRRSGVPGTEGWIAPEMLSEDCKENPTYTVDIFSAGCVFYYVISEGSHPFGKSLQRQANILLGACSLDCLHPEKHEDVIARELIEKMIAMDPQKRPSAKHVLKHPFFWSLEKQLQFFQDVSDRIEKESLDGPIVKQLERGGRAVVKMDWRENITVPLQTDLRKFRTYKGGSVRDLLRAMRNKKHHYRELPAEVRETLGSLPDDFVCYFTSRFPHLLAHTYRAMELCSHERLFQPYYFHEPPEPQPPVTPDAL
Chain of kinases (KINOMEscan panel) (Homo sapiens, UniProt P49760) (P49760 whole entry): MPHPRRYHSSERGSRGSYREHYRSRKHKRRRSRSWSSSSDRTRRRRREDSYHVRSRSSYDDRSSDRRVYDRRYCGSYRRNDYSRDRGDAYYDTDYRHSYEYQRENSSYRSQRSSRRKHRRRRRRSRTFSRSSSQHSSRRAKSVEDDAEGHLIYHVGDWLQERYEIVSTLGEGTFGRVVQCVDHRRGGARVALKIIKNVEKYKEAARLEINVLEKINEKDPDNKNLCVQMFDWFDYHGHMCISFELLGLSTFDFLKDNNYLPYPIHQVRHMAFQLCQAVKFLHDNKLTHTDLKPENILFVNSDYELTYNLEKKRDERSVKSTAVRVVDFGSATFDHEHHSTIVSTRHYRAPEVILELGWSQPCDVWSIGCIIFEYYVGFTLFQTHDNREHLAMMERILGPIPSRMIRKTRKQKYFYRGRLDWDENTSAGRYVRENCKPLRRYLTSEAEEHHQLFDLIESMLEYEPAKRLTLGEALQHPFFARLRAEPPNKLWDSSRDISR
Chain of kinases (KINOMEscan panel) (Homo sapiens, UniProt Q16512) (Q16512 whole entry): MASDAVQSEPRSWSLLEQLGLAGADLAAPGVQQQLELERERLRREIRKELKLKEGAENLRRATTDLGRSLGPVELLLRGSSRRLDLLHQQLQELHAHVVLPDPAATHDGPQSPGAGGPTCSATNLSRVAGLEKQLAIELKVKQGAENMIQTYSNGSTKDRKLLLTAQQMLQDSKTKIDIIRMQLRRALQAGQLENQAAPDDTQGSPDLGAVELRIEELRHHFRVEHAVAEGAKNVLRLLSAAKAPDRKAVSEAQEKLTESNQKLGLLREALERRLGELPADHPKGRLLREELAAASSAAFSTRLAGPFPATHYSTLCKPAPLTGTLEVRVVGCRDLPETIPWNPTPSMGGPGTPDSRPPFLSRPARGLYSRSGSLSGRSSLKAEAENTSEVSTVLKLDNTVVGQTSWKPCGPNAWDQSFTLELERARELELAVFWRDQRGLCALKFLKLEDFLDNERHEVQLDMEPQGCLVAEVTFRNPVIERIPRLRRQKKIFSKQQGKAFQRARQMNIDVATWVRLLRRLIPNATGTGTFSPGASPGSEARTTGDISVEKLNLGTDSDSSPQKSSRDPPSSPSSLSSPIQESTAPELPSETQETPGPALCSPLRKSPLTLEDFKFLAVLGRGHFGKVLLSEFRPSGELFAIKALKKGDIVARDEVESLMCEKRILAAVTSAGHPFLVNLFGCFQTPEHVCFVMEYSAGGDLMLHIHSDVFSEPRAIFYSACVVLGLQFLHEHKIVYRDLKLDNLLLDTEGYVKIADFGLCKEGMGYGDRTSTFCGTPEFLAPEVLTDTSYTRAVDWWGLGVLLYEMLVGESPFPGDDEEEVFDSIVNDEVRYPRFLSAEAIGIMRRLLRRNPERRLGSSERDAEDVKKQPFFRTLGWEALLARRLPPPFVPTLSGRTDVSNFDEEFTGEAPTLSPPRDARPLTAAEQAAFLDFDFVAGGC

Cc1cccc(-c2nc(Nc3ccncc3)c3ccccc3n2)n1 [NK215]
KINOMEscan ERN1 [1]: 0 | KINOMEscan CLK2 [2]: 8 | KINOMEscan EPHB4 [3]: 26 | KINOMEscan HUNK [4]: 0 | KINOMEscan PKN1 [5]: 0 | KINOMEscan NEK11 [6]: 0
